Ki and inhibition data for 66 molecules are collected here from ChEMBL document CHEMBL1126680, “Structure-activity relationships of 8-styrylxanthines as A2-selective adenosine antagonists” (J Med Chem, 1993).

In the first assay the target is T1, Adenosine receptor A1 (Rattus norvegicus, UniProt P25099).
T1 sequence (P25099 whole entry): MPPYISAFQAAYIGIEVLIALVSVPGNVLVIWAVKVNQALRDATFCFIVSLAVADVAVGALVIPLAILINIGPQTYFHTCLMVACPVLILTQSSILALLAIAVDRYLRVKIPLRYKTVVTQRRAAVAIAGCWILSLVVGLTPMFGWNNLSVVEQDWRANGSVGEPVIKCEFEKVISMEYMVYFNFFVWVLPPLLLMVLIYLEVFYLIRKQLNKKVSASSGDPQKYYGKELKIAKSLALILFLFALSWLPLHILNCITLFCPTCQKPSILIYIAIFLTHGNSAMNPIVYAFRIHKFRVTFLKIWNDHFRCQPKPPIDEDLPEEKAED
As to the kind of experiment: Affinity against Adenosine A1 receptor in rat brain using [3H]- PIA as radioligand. It is filed as tissue-based.
Settings: not given
In turn, `COc1cc(/C=C/c2nc3c(c(=O)n(C)c(=O)n3C)n2C)cc(OC)c1OC` yielded a Ki of 9200 nM. That is a single-digit micromolar value. As for `COc1cc(/C=C/c2nc3c(=O)n(C)c(=O)n(C)c3[nH]2)cc(OC)c1OC`, the inhibition constant Ki stood at 2280 nM.

Regarding `COc1cccc2cc(-c3nc4c(=O)n(C)c(=O)n(C)c4[nH]3)oc12`, the Ki is 1770 nM.

Regarding `Cn1c(=O)c2c(nc(/C=C/c3cccc(NC(=O)OC(C)(C)C)c3)n2C)n(C)c1=O`, the affinity corresponds to a Ki of 23600 nM. Same read-out and setting: as for `C=CCn1c(=O)c2c(nc(/C=C/c3cc(OC)c(OC)c(OC)c3)n2C)n(CC=C)c1=O`, the figure is 1930 nM.

The target of a further assay is Adenosine A2 receptor (Rattus norvegicus) (UniProt P29276+P30543). Nature of the assay: Binding affinity against Adenosine A2 receptor in rat brain using [3H]- CGS 21680. It is filed as tissue-based. The note with it: concentration not given here.
Regarding `COc1cc(/C=C/c2nc3c(c(=O)n(C)c(=O)n3C)n2CCO)cc(OC)c1OC`, the inhibition is 22%.

For another assay, the target named is T2, Adenosine receptor A1 (Rattus norvegicus) (UniProt P25099).
T2 sequence (whole entry): T1 sequence (P25099 whole entry)
As to the kind of experiment: Binding affinity against Adenosine A1 receptor in rat brain using [3H]- PIA. It is filed as tissue-based. The conditions noted are these: concentration not given here.
Take `COc1cc(/C=C/c2nc3c(c(=O)n(C)c(=O)n3C)n2C)cc(OC)c1`: the inhibition was 12.5%. The molecule `COc1ccc(/C=C/c2nc3c(=O)n(C)c(=O)n(C)c3[nH]2)c(OC)c1OC` came in with an inhibition of 26%. In turn, `CN(C)c1ccc(/C=C/c2nc3c(c(=O)n(C)c(=O)n3C)n2C)cc1` had an inhibition of 5.6%.

Molecule `COc1cc(/C=C/c2nc3c(c(=O)n(C)c(=O)n3C)n2CCO)cc(OC)c1OC` yielded an inhibition of 26%. The same measure, in the same setting: the same measure for `Cn1c(=O)c2c(nc(CCc3cccc(N)c3)n2C)n(C)c1=O`: 15%. The same measure, in the same setting: as for `COc1cc(/C=C/c2nc3c(c(=O)n(C)c(=O)n3C)n2C)cc(OC)c1OC/C=C/CNC(C)=O`, the figure is 17%; as for `COc1cc(/C=C/c2nc3c(c(=O)n(C)c(=O)n3C)n2C)cc(OC)c1OC/C=C/CNC(=O)OC(C)(C)C`, 11%.

A further assay addresses Adenosine A2 receptor (Rattus norvegicus, UniProt P29276+P30543). As to the kind of experiment: Binding affinity against adenosine A2 receptor in rat brain using [3H]- CGS 21680 as radioligand.
Settings: not given
It counts as tissue-based.
`COc1cc(/C=C/c2nc3c(=O)n(C)c(=O)n(C)c3[nH]2)cc(OC)c1` came in with a Ki of 120 nM. Same read-out and setting: as for `CCn1c(=O)c2nc(/C=C/c3cc(OC)c(OC)c(OC)c3)[nH]c2n(CC)c1=O`, the figure is 269 nM. On the same count and under the same terms, the same measure for `COc1ccc(/C=C/c2nc3c(c(=O)n(C)c(=O)n3C)n2C)c(OC)c1OC`: 206 nM; for `Cn1c(=O)c2nc(/C=C/c3cccc(N)c3)[nH]c2n(C)c1=O`: 202 nM; for `CCCn1c(=O)c2nc(/C=C/c3cccc(Cl)c3)[nH]c2n(CCC)c1=O`: 216 nM. As to `COc1cc(/C=C/c2nc3c(c(=O)n(C)c(=O)n3C)n2C)cc(OC)c1`, the Ki came out at 75.3 nM. Against the preceding molecule, the Ki is about 2.9-fold lower. Same read-out and setting: the same measure for `COc1ccc(/C=C/c2nc3c(=O)n(C)c(=O)n(C)c3[nH]2)cc1`: 472 nM. Turning to `CCCn1c(=O)c2nc(/C=C/c3cc(F)cc(F)c3)[nH]c2n(CCC)c1=O`, the Ki stood at 346 nM. Same read-out and setting: the same measure for `COc1ccc(/C=C/c2nc3c(=O)n(C)c(=O)n(C)c3[nH]2)c(OC)c1OC`: 1610 nM; for `COc1cccc(/C=C/c2nc3c(c(=O)n(C)c(=O)n3C)n2C)c1`: 84.8 nM. The molecule `CCCn1c(=O)c2nc(/C=C/c3ccccc3)[nH]c2n(CCC)c1=O` displayed a Ki of 44 nM. Against the preceding molecule, the Ki is about 1.9-fold lower.

In turn, `CCCn1c(=O)c2c(nc(/C=C/c3cccc(N)c3)n2C)n(CCC)c1=O` came in with an inhibition constant (Ki) of 18.9 nM. In the case of `CCCn1c(=O)c2c(nc(/C=C/c3cccc([N+](=O)[O-])c3)n2C)n(CCC)c1=O`, the Ki is 56.2 nM. `CCn1c(/C=C/c2cc(OC)c(OC)c(OC)c2)nc2c1c(=O)n(C)c(=O)n2C` came in with a Ki of 882 nM. In turn, `COc1cc(/C=C/c2nc3c(c(=O)n(C)c(=O)n3C)n2C)cc(OC)c1OCCCCN` gave a Ki of 173 nM. Same read-out and setting: the same measure for `Cn1c(=O)c2c(nc(/C=C/c3cccc(NC(=O)CCC(=O)O)c3)n2C)n(C)c1=O`: 143 nM. `Cn1c(=O)c2nc(/C=C/c3cc(F)cc(F)c3)[nH]c2n(C)c1=O` came in with an inhibition constant Ki of 366 nM. Against the preceding molecule, the Ki is about 2.6-fold higher. On the same count and under the same terms, as for `COc1cc(/C=C/c2nc3c(c(=O)n(C)c(=O)n3C)n2C)cc(OC)c1OCCCCNC(=O)OC(C)(C)C`, the figure is 265 nM. Regarding `COc1cccc2cc(-c3nc4c(=O)n(C)c(=O)n(C)c4[nH]3)oc12`, the Ki is reported as 3900 nM. With `Cn1c(=O)c2c(nc(/C=C/c3cccc(NC(=O)OC(C)(C)C)c3)n2C)n(C)c1=O`, the Ki was 784 nM. The same measure, in the same setting: as for `Cn1c(=O)c2nc(/C(F)=C/c3ccccc3)[nH]c2n(C)c1=O`, the figure is 2110 nM; as for `Cn1c(=O)c2nc(/C=C/c3cccc([N+](=O)[O-])c3)[nH]c2n(C)c1=O`, 438 nM. Still for that read-out and setting: the same measure for `CN(C)c1ccc(/C=C/c2nc3c(c(=O)n(C)c(=O)n3C)n2C)cc1`: 9270 nM; for `Cn1c(=O)c2c(nc(/C=C/c3cccc(C(F)(F)F)c3)n2C)n(C)c1=O`: 134 nM; for `COc1cc(/C=C/c2nc3c(c(=O)n(C)c(=O)n3C)n2C)cc(OC)c1OC(C)=O`: 68 nM. In the case of `COc1ccc(/C=C/c2nc3c(c(=O)n(C)c(=O)n3C)n2C)cc1OC`, the Ki is 197 nM. On to `COc1ccc(/C=C/c2nc3c(c(=O)n(C)c(=O)n3C)n2C)cc1`, for which the Ki is reported as 327 nM. Still for that read-out and setting: the same measure for `COc1ccccc1/C=C/c1nc2c(c(=O)n(C)c(=O)n2C)n1C`: 267 nM. The same measure, in the same setting: as for `CC(=O)Nc1cccc(/C=C/c2nc3c(c(=O)n(C)c(=O)n3C)n2C)c1`, the figure is 39 nM; as for `Cn1c(=O)c2c(nc(/C=C/c3cccc(F)c3)n2C)n(C)c1=O`, 83 nM; as for `COc1ccccc1/C=C/c1nc2c(=O)n(C)c(=O)n(C)c2[nH]1`, 645 nM. Turning to `COc1cc(/C=C/c2nc3c(c(=O)n(C)c(=O)n3C)n2C)cc(OC)c1OCc1ccccc1`, the Ki was determined as 139 nM. The same measure, in the same setting: the same measure for `C#CCn1c(/C=C/c2cc(OC)c(OC)c(OC)c2)nc2c1c(=O)n(C)c(=O)n2C`: 525 nM. Same read-out and setting: as for `Cn1c(=O)c2nc(/C=C/c3ccccc3)[nH]c2n(C)c1=O`, the figure is 291 nM; as for `COc1cccc(/C=C/c2nc3c(=O)n(C)c(=O)n(C)c3[nH]2)c1OC`, 600 nM; as for `CN(C)c1ccc(/C=C/c2nc3c(=O)n(C)c(=O)n(C)c3[nH]2)cc1`, 12800 nM. The same measure, in the same setting: as for `CCCn1c(=O)c2nc(/C=C/c3cccc(F)c3)[nH]c2n(CCC)c1=O`, the figure is 153 nM; as for `CCCn1c(=O)c2nc(/C=C/c3ccc(OC)c(OC)c3OC)[nH]c2n(CCC)c1=O`, 64 nM; as for `Cn1c(=O)c2c(nc(CCc3cccc(N)c3)n2C)n(C)c1=O`, 18000 nM. In turn, `COc1cc(/C=C/c2nc3c(c(=O)n(C)c(=O)n3C)n2C)cc(OC)c1OC/C=C/CNC(C)=O` showed a Ki of 216 nM. `COc1cccc(/C=C/c2nc3c(c(=O)n(C)c(=O)n3C)n2C)c1OC` showed a Ki of 716 nM. As to `CCCn1c(=O)c2c(nc(/C=C/c3ccc(OC)c(OC)c3OC)n2C)n(CCC)c1=O`, the Ki was determined as 68.5 nM.

Turning to `Cn1c(=O)c2nc(/C=C/c3cccc(C(F)(F)F)c3)[nH]c2n(C)c1=O`, the inhibition constant (Ki) was found to be 343 nM. On to `COc1ccc(/C=C/c2nc3c(=O)n(C)c(=O)n(C)c3[nH]2)cc1OC`, for which the Ki is 1100 nM.

The molecule `COc1cc(/C=C/c2nc3c(c(=O)n(C)c(=O)n3C)n2C)cc(OC)c1OC/C=C/CNC(=O)OC(C)(C)C` registered a Ki of 353 nM. On the same count and under the same terms, as for `CCCn1c(=O)c2c(nc(/C=C/c3cc(OC)c(OC)cc3OC)n2C)n(CCC)c1=O`, the figure is 327 nM; as for `COc1cc(/C=C/c2nc3c(c(=O)n(C)c(=O)n3C)n2C)cc(OC)c1OC/C=C/CN`, 228 nM. `Cn1c(=O)c2nc(/C=C/c3cccc(F)c3)[nH]c2n(C)c1=O` returned a Ki of 516 nM.

Take `COc1cccc(/C=C/c2nc3c(=O)n(C)c(=O)n(C)c3[nH]2)c1`: the Ki came out at 378 nM. The same measure, in the same setting: the same measure for `Cn1c(=O)c2c(nc(/C=C/c3cccc(N)c3)n2C)n(C)c1=O`: 57 nM; for `COc1cc(/C=C/c2nc3c(c(=O)n(C)c(=O)n3C)n2CCc2ccccc2)cc(OC)c1OC`: 14 nM.

`CCCn1c(=O)c2c(nc(/C=C/c3cccc(F)c3)n2C)n(CCC)c1=O` displayed a Ki of 33 nM. On the same count and under the same terms, the same measure for `COc1cc(/C=C/c2nc3c(c(=O)n(C)c(=O)n3C)n2C)cc(OC)c1O`: 450 nM.

Turning to `CCCn1c(=O)c2nc(/C=C/c3cc(OC)c(OC)cc3OC)[nH]c2n(CCC)c1=O`, the Ki is on record as 323 nM. Same read-out and setting: as for `CCCn1c(=O)c2nc(/C=C/c3cc(OC)cc(OC)c3)[nH]c2n(CCC)c1=O`, the figure is 210 nM; as for `Cn1c(=O)c2c(nc(/C=C/c3cccc([N+](=O)[O-])c3)n2C)n(C)c1=O`, 195 nM.

`COc1cccc2cc(-c3nc4c(c(=O)n(C)c(=O)n4C)n3C)oc12`: the inhibitory constant (Ki) is 4740 nM. Compared with the last molecule, the Ki is about 24-fold higher. `CCCn1c(=O)c2c(nc(/C=C/c3cc(OC)cc(OC)c3)n2C)n(CCC)c1=O`: the Ki was found to be 24 nM.

With `CCCn1c(=O)c2c(nc(/C=C/c3cc(F)cc(F)c3)n2C)n(CCC)c1=O`, the Ki is listed as 53 nM. This Ki lies about 2.2-fold higher than the previous one. Still for that read-out and setting: as for `Cn1c(=O)c2c(nc(/C=C/c3cc(F)cc(F)c3)n2C)n(C)c1=O`, the figure is 65 nM; as for `Cn1c(=O)c2c(nc(/C=C/c3cccc(N(C(=O)OC(C)(C)C)C(=O)OC(C)(C)C)c3)n2C)n(C)c1=O`, 740 nM; as for `Cn1c(=O)c2nc(/C=C/c3cccc(O)c3)[nH]c2n(C)c1=O`, 303 nM.

Usually Ki stands for the equilibrium dissociation constant of an inhibitor or competing ligand from its target. Read a low Ki as a stronger hold on the target. As a reminder, the inhibition is the share of the control response that was lost under treatment. High values mean a response far below the control, low ones a response near the control.
